This is an account of results in patent US5837729A, “Methods for treating and preventing HIV infection using acetaminophen and derivatives thereof” (priority 1996, dated 1998).

The test system of data set [1] is HIV. Particulars: cited from earlier work.
For data set [2] the following is noted: cited from earlier work.
For data set [3], the system named is MT-4 T lymphocytes. Briefly: MT-4 viability/cytotoxicity by XTT assay (2 days). An excerpt: (§1) The % values on the right axis were positioned in a fashion that allows estimation of inhibitory effect of the test drug as a function of acetaminophen concentration plotted on the horizontal axis.
(§2) The % values on the right axis were positioned in a fashion that allows estimation of inhibitory effect of the test drug as a function of AGB concentration plotted on the horizontal axis.
(§3) The % values on the right axis were positioned in a fashion that allows estimation of the inhibitory effect of test drug as a function of EGB concentration plotted on the horizontal axis.
(§4) The toxicity of compounds was tested as follows. MT-4 lymphocytes were grown in the presence or absence of log10 dilutions of test compounds for two days. The cells were then exposed for 4 hours to the preparation of XTT tetrasolium salt (Sigma, St Louis, Mo.) containing phenazine methosulfate (Aldrich, Milwaukee, Wis.). The viability of drug-exposed cells was determined based on activity of mitochondrial […] of MT-4 converting XTT into color-dense formazan. Optical density was then determined in a plate reader at […] with reference filter at […] and compared to absorbance values of the control cells cultured without drugs. XTT test was also confirmed by trypan blue exclusion test based on the principle that nuclei of dead cells are stained blue.
(§5) The serial ten-fold dilutions of AGB, virus, and cells were left without washing in the culture until tested for HIV production 2 days later. Topical contraceptive agents nonoxynol-9 and gramicidin were used as controls.
(§6) The serial ten-fold dilutions of EGB, virus, and cells were left without washing in the culture until tested for HIV production 2 days later. Topical contraceptive agents nonoxynol-9 and gramicidin were used as controls.
For orientation: Formazan colour is commonly taken as a measure of viable cells.

Data set [4] relates to HIV. Put plainly: HIV infection of MT-4 T lymphocytes, p24 ELISA of culture supernatant on day 2. It counts as cell-based. To be noted: for IC100 / IC50: Human immunodeficiency virus 1, T-lymphocyte; for IC100: 48 h; for anti-HIV activity (in words) / IC50: MT-4, p24. The method, then:
as §2, §3
Indicator MT-4 T lymphocytes (10^5 cells/ml) were plated in triplicates in 96-well culture plates in the presence of serial 10-fold molar dilutions of test compound. Each culture well contained 180 μl of RPMI 1640 culture medium with 10% FBS, L-glutamine, penicillin and streptomycin. Immediately thereafter MT-4 lymphocytes were exposed to 20 μl of viral inoculum corresponding to 100 infectious units per lymphocyte as determined by limiting dilution assay. Two days later--the minimal time period corresponding to full replication cycle of HIV--the culture supernatants were collected and dose-response to drugs was quantitated by measuring the levels of cell-free p24 antigen. The amount of released virus was calculated by comparing the optical density of experimental values from treated wells to commercial p24 standards (Coulter, Hialeah, Fla.).
as §5, §6

The conditions of data set [5]: cited from earlier work; for potency as experimental vaginal contraceptive, fold more potent than nonoxynol-9: versus nonoxynol-9.
In data set [6] the test system is acrosin. Particulars: correlated with contraceptive effect; cited from earlier work.
For data set [7], the system named is MT-4 T lymphocytes. Format: cell-based. The method, then:
The toxicity of compounds was tested as follows.

A short description of data set [8]: in vitro. Particulars: human, mt-4 cells.
Text: as §1, §2, §3, §4, §5, §6

Data set [9] relates to human spermatozoa. Particulars: in vitro with human spermatozoa and in animal studies; cited from earlier work.
The mark [10] stands for this setting: background, earlier work of inventor.
The mark [11] stands for this setting: Table 1, MT-4, 2 days, read-out: IC100 (approximate order of anti-HIV concentration).
Where [12] appears, read: p24 ELISA, MT-4 supernatant, day 2, read-out: Complete inhibition of HIV replication, concentration.

Values after ≈ are worked out from the molar mass of the structure shown. Values joined by “and” are separate entries in the source; they are usually repeats but may differ in a detail not shown here. Equal values may be shown once. “Also recorded” adds a separate entry of the source. Read-outs that look alike come from different tables or passages of the source.

Take `C[C@@H]1C[C@H]2[C@@H]3CCC4=CC(=O)C=C[C@]4(C)[C@@]3(F)[C@@H](O)C[C@]2(C)[C@@]1(O)C(=O)CO` [dexamethasone]: the “anti-HIV effect / inhibition of HIV replication (in words)” value (shortened to “anti-HIV effect / inhibition”) in data set [1] (setting [10]) is listed as “anti-HIV effect”.
With nonoxynol-9, the “local toxicity (in words)” value in data set [2] (spermicidal agent, effective concentration) is on record as “local toxicity of this agent is incompatible with its antiviral activity when used at an effective concentration”. Further, the “CC100 (cytotoxicity)” value in data set [3] (Table 1, MT-4, 2 days) came to 10 µg. Besides, in data set [4] (Table 1, MT-4, 2 days), the “IC100 (approximate order of anti-HIV concentration)” value came out at 10 µg.
Regarding `CC(=O)[C@H]1CC[C@H]2[C@@H]3CCC4=CC(=O)CC[C@]4(C)[C@H]3CC[C@]12C` [progesterone], the “anti-HIV effect / inhibition” value in [1] (setting [10]) is listed as “anti-HIV effect”.
Turning to estrogen, the “anti-HIV effect / inhibition” value in data set [1] (setting [10]) was “anti-HIV effect”.
Consider `CC(C)C[C@H](NC(=O)[C@@H](O)[C@H](N)Cc1ccccc1)C(=O)O` [bestatin], for which the “anti-HIV effect / inhibition” value in data set [1] (setting [10]) was “anti-HIV effect”.
Consider `COc1ccc2c(c1)c(CC(=O)O)c(C)n2C(=O)c1ccc(Cl)cc1` [indomethacin], for which the “relative anti-HIV potency (in words)” value in data set [1] (indomethacin versus aspirin) was “more potent than aspirin”.
As to `CC(=O)CC(c1ccccc1)c1c(O)c2ccccc2oc1=O` (stereo not drawn) [warfarin], in data set [1] (setting [10]), the “anti-HIV effect / inhibition” value is reported as “anti-HIV effect”.
`CCOC(=O)c1ccc(OC(=O)c2ccc(NC(=N)N)cc2)cc1` [EGB, 4'-carboethoxyphenyl 4-guanidinobenzoate]: in data set [5], the “toxicity and irritation versus nonoxynol-9 (in words)” value was “far less toxic and irritating”; the “potency as experimental vaginal contraceptive, fold more potent than nonoxynol-9” value is on record as “up to 100 fold”. In data set [3] (human, 2880 min), the “CC100 (cytotoxicity)” value is 100 µg. In [6], the “acrosin activity (in words)” value was “inhibitory action on acrosin activity”. Further, the “viability of MT-4 lymphocytes by trypan blue exclusion (in words)” value in [7] is reported as “death of MT-4 lymphocytes”. Moreover, in data set [4], the “SI, selectivity index, ratio between CC100 and IC100 values” came to 1; the “anti-HIV activity (in words)” value was “antiviral activity was not specific and due to the death of host lymphocytes; also recorded: no effect on HIV infection at doses that were not toxic; also recorded: has not shown specific anti-HIV activity”. The IC100 in [4] (setting [11]) was 100 µg/mL.
With `c1ccc([C@H]2CN3CCSC3=N2)cc1` [levamisole], the “anti-HIV effect / inhibition” value in data set [1] is reported as “anti-HIV effect”.
As to gramicidin, in data set [1] (setting [10]), the “anti-HIV effect / inhibition” value was “able to inhibit HIV replication without producing significant cytotoxicity”. The “CC100 (cytotoxicity)” value in [3] (Table 1, MT-4, 2 days) was determined as 10 µg. Also, the “toxicity relative to AGB (in words)” value in data set [3] (dose compared with AGB) is “toxic at doses that are a thousand-fold lower than AGB”. For the same compound, the “IC100 (approximate order of anti-HIV concentration)” value in data set [4] (Table 1, MT-4, 2 days) was 0.01 µg.
`CC(=O)Nc1ccc(O)cc1` [Acetaminophen, acetaminophen]: the “anti-inflammatory activity (in words)” value in data set [2] (human, in vivo) is on record as “no anti-inflammatory activity”. Also, in [2] (overdose or consumption with alcohol), the “toxicity / hepatotoxicity (in words)” value was “can cause hepatotoxicity”. Further, the selectivity ratio in [8] is at most 75. Moreover, the “toxicity at tested concentrations (in words)” value in data set [3] is “has not shown any toxicity at all tested concentrations”. In data set [3] (up to highest tested dose containing 0.5% of ethanol), the “toxic dose-effect by XTT formazan OD (in words)” value is listed as “no observable toxic dose-effect”. Further, the IC100 is 150 µg/mL in data set [4] (setting [11]); 150 µg/mL and 1000 µM in data set [4] (setting [12]). Also, the IC50 in data set [4] (read-out: inhibitory concentration (IC50), 50% inhibition of de novo HIV infection) worked out at 21 µg/mL (≈ 139 µM). Moreover, the “anti-HIV activity (in words)” value in data set [4] is given as “antivirally active”.
`CC(=O)Nc1ccc(OC(=O)c2ccc(NC(=N)N)cc2)cc1` [AGB, 4'-acetamidophenyl 4-guanidinobenzoate]: the “optimal concentration required to inhibit both acrosome reaction and sperm motility” value in [9] was 100 µg/mL. Also, in [5], the “toxicity and irritation versus nonoxynol-9 (in words)” value is “far less toxic and irritating”; the “potency as experimental vaginal contraceptive, fold more potent than nonoxynol-9” value was “up to 100 fold”. In addition, in data set [3] (human, 2880 min), the “CC100 (cytotoxicity)” value worked out at 10000 µg. Further, the “acrosin activity (in words)” value in [6] is given as “inhibitory action on acrosin activity”. For the same compound, the “antiviral potency relative to nonoxynol-9, times less potent” value in [4] was 10 times. The IC100 in data set [4] (setting [11]) amounted to 100 µg/mL. The IC100 in data set [4] (setting [12]) came to 100 µg/mL. Further, in data set [4] (read-out: anti-HIV activity in vitro, IC50), the IC50 is 14 µg/mL (≈ 44.8 µM). Besides, the “SI, selectivity index, ratio between CC100 and IC100 values” in data set [4] (Table 1, CC100/IC100) is on record as 100.
Turning to `CN/C(=N/CCSCc1nc[nH]c1C)NC#N` [cimetidine], the “anti-HIV effect / inhibition” value in data set [1] was “able to inhibit HIV replication without producing significant cytotoxicity”.
